We go through ten molecules from patent publication US12403137B2, “Compounds and methods of use” (Tango Therapeutics, Inc., priority 2019, dated 2025).

Each structure is given as a SMILES string. Bounds are passed on as bounds.

Assay [1] deals with HAP1 MTAP-deleted cell line. The assay is described as follows: SDMA in-cell western assay, HAP1 MTAP-deleted. It counts as cell-based. The conditions noted are these: for IC50: Homo sapiens, HAP1 MTAP-deleted (MTAP-null) cell line; for MTAP Intact/Deleted Ratio: IC50 ratio HAP1 MTAP-intact / HAP1 MTAP-deleted, >=3 fold considered MTAP-selective. Put shortly: (§1)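 Symmetric dimethylarginine (SDMA) levels were measured by in-cell western in an isogenic HAP1 pair. One line expresses endogenous MTAP and the other is MTAP-null, with an IC50 derived in each.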

In assay [2] the test system is HAP1 MTAP-intact cell line. The assay is described as follows: SDMA in-cell western assay, HAP1 MTAP-intact. The following applies: Homo sapiens. It counts as cell-based. In outline: as §1
Assay [3] has as its target T1, PRMT5 (Homo sapiens, UniProt O14744).
T1 construct: purchased Viva (custom protein)
The assay is described as follows: PRMT5 inhibition assay with MTA as cofactor. The following applies: for IC50: against PRMT5 with MTA as cofactor; for SAM/MTA Ratio: ratio of Ki in the presence of SAM to Ki in the presence of MTA, Ki=IC50/1.5 (SAM), Ki=IC50/13.5 (MTA). It counts as biochemical. An excerpt: (§2) The Ki values can be calculated from the IC50 values as described in the Examples section. As detailed in the Examples section, for the assay performed in the presence of SAM, IC50=Ki×1.5 (Ki=IC50/1.5). For the assay performed in the presence of MTA, IC50=Ki×13.5 (Ki=IC50/13.5). Column 6 indicates the ratio between the Ki of compounds in the presence of SAM and the Ki of compounds in the presence of MTA

Assay [4] addresses T1, PRMT5. The experiment in a line: PRMT5 inhibition assay with SAM as cofactor. The conditions noted are these: against PRMT5 in the presence of SAM as cofactor. It counts as biochemical.
Source text: as §2

The target in assay [5] is T1, PRMT5. The experiment in a line: PRMT5 inhibition assay with no cofactor. It is filed as biochemical. The conditions noted are these: against PRMT5 with no cofactor; read-out: No Co-factor IC50.

T1 sequence (O14744 whole entry): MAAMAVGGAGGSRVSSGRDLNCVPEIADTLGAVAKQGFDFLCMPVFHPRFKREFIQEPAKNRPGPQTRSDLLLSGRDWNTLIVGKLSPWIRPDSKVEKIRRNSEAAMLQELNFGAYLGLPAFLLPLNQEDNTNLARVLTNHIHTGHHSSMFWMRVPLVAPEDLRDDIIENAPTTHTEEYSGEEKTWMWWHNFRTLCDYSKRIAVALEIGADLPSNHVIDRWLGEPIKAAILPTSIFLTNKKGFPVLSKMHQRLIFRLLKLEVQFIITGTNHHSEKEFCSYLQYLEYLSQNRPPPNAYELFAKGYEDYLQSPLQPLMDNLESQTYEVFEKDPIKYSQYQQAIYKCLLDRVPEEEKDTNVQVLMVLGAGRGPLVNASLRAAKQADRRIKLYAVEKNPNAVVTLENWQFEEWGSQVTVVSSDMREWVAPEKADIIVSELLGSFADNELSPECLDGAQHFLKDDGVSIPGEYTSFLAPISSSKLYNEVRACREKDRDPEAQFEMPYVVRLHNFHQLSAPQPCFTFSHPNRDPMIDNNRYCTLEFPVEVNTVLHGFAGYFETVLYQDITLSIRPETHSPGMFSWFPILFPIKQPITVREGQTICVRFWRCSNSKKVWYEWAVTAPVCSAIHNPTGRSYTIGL
T1 sequence (Q9BQA1 whole entry partner): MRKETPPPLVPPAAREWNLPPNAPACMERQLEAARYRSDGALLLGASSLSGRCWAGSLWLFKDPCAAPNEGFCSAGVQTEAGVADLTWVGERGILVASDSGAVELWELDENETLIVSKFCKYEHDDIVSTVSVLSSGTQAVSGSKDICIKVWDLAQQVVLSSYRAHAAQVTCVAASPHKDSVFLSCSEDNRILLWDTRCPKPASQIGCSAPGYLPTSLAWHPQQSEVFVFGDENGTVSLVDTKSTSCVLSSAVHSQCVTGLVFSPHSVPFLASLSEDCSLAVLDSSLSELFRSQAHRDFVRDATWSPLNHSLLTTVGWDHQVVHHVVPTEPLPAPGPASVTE

Take `Cc1ncoc1COc1ccc2c(c1)CN[C@H]([C@H](O)CNC(=O)c1ccnc(NC3CC4(CCC4)C3)c1)C2` [Compound 46, N-[(2R)-2-hydroxy-2-[(3S)-7-[(4-methyloxazol-5-yl)methoxy]-1,2,3,4-tetrahydroisoquinolin-3-yl]ethyl]-2-(spiro[3.3]heptan-2-ylamino)pyridine-4-carboxamide]: the IC50 (commonly the concentration at which inhibition is half-maximal) in assay [1] was less than 1000 nM; in assay [2], less than 1000 nM; against PRMT5 [3] it was less than 50 nM; on PRMT5 [4], 50 to 500 nM; on PRMT5 [5], 50 to 500 nM. The “MTAP Intact/Deleted Ratio” value in assay [1] was “B* (an IC50 ratio greater than or equal to 3 fold but lower than 10 fold between the IC50 in the HAP1 MTAP-intact cell line and the HAP1 MTAP-deleted cell line)”. Also, the “SAM/MTA Ratio” value on PRMT5 [3] was “A (a Ki ratio greater than or equal to 10 fold between the Ki in the presence of SAM and the Ki in the presence of MTA)”.

As for `CC(=O)N1CC(Nc2cc(C(=O)NC[C@@H](O)[C@@H]3Cc4ccc(OCc5ocnc5C)cc4CN3)nc(N3CCN(C(C)C)CC3)n2)C1` [Compound 47, 6-[(1-acetylazetidin-3-yl)amino]-N-[(2R)-2-hydroxy-2-[(3S)-7-[(4-methyloxazol-5-yl)methoxy]-1,2,3,4-tetrahydroisoquinolin-3-yl]ethyl]-2-(4-isopropylpiperazin-1-yl)pyrimidine-4-carboxamide], the 50% inhibitory concentration (IC50) in assay [1] is 1000 to 10000 nM; in assay [2], no less than 10000 nM; on PRMT5 [3], less than 50 nM; at PRMT5 [4], 50 to 500 nM; at PRMT5 [5], 50 to 500 nM. The “MTAP Intact/Deleted Ratio” value in assay [1] is “C* (an IC50 ratio of less than 3 fold between the IC50 in the HAP1 MTAP-intact cell line and the HAP1 MTAP-deleted cell line)”. The “SAM/MTA Ratio” value on PRMT5 [3] is “A (a Ki ratio greater than or equal to 10 fold between the Ki in the presence of SAM and the Ki in the presence of MTA)”.

On to `Cc1ncoc1COc1ccc2c(c1)CN[C@H]([C@H](O)CNC(=O)c1cc(NC3CCC3)nc(N3CCCCC3)n1)C2` [Compound 49, 6-(cyclobutylamino)-N-[(2R)-2-hydroxy-2-[(3S)-7-[(4-methyloxazol-5-yl)methoxy]-1,2,3,4-tetrahydroisoquinolin-3-yl]ethyl]-2-(1-piperidyl)pyrimidine-4-carboxamide], for which the IC50 is less than 1000 nM in assay [1]; 1000 to 10000 nM in assay [2]; less than 50 nM at PRMT5 [3]; 50 to 500 nM at PRMT5 [4]; 50 to 500 nM at PRMT5 [5]. In assay [1], the “MTAP Intact/Deleted Ratio” value is “A* (an IC50 ratio greater than or equal to 10 fold between the IC50 in the HAP1 MTAP-intact cell line and the HAP1 MTAP-deleted cell line)”. In addition, the “SAM/MTA Ratio” value at PRMT5 [3] was “A (a Ki ratio greater than or equal to 10 fold between the Ki in the presence of SAM and the Ki in the presence of MTA)”.

As for `CC(=O)N1CCC(Nc2cc(C(=O)NC[C@@H](O)[C@@H]3Cc4ccc(OCc5ocnc5C)cc4CN3)nc(N3CCCCC3)n2)CC1` [Compound 50, 6-[(1-acetyl-4-piperidyl)amino]-N-[(2R)-2-hydroxy-2-[(3S)-7-[(4-methyloxazol-5-yl)methoxy]-1,2,3,4-tetrahydroisoquinolin-3-yl]ethyl]-2-(1-piperidyl)pyrimidine-4-carboxamide], the IC50 in assay [1] is less than 1000 nM; in assay [2], less than 1000 nM; at PRMT5 [3], less than 50 nM; on PRMT5 [4] it was 50 to 500 nM; at PRMT5 [5], 50 to 500 nM. The “MTAP Intact/Deleted Ratio” value in assay [1] was “A* (an IC50 ratio greater than or equal to 10 fold between the IC50 in the HAP1 MTAP-intact cell line and the HAP1 MTAP-deleted cell line)”. Further, the “SAM/MTA Ratio” value on PRMT5 [3] was “A (a Ki ratio greater than or equal to 10 fold between the Ki in the presence of SAM and the Ki in the presence of MTA)”.

Take `CC(=O)N1CC(Nc2cc(C(=O)NC[C@@H](O)[C@@H]3Cc4ccc(OCc5ocnc5C)cc4CN3)nc(N3CC4CC(C4)C3)n2)C1` [Compound 51, 6-[(1-acetylazetidin-3-yl)amino]-2-(3-azabicyclo[3.1.1]heptan-3-yl)-N-[(2R)-2-hydroxy-2-[(3S)-7-[(4-methyloxazol-5-yl)methoxy]-1,2,3,4-tetrahydroisoquinolin-3-yl]ethyl]pyrimidine-4-carboxamide]: the IC50 in assay [1] was less than 1000 nM; in assay [2] it was 1000 to 10000 nM; at PRMT5 [3] it was less than 50 nM; at PRMT5 [4], 50 to 500 nM; on PRMT5 [5] it was 50 to 500 nM. In addition, the “MTAP Intact/Deleted Ratio” value in assay [1] was “A* (an IC50 ratio greater than or equal to 10 fold between the IC50 in the HAP1 MTAP-intact cell line and the HAP1 MTAP-deleted cell line)”. The “SAM/MTA Ratio” value on PRMT5 [3] is “A (a Ki ratio greater than or equal to 10 fold between the Ki in the presence of SAM and the Ki in the presence of MTA)”.

Regarding `Cc1ncoc1COc1ccc2c(c1)CN[C@H]([C@H](O)CNC(=O)c1cc(NC3CCC3)nc(N3CCN(C)CC3)c1)C2` [Compound 52, 2-(cyclobutylamino)-N-[(2R)-2-hydroxy-2-[(3S)-7-[(4-methyloxazol-5-yl)methoxy]-1,2,3,4-tetrahydroisoquinolin-3-yl]ethyl]-6-(4-methylpiperazin-1-yl)pyridine-4-carboxamide], the 50% inhibitory concentration (IC50) was less than 1000 nM in assay [1]; less than 1000 nM in assay [2]; less than 50 nM at PRMT5 [3]; 50 to 500 nM at PRMT5 [4]; 50 to 500 nM at PRMT5 [5]. Moreover, the “MTAP Intact/Deleted Ratio” value in assay [1] was “A* (an IC50 ratio greater than or equal to 10 fold between the IC50 in the HAP1 MTAP-intact cell line and the HAP1 MTAP-deleted cell line)”. For the same molecule, the “SAM/MTA Ratio” value at PRMT5 [3] was “A (a Ki ratio greater than or equal to 10 fold between the Ki in the presence of SAM and the Ki in the presence of MTA)”.

Consider `CC(=O)N1CC(Nc2cc(C(=O)NC[C@@H](O)[C@@H]3Cc4ccc(OCc5ocnc5C)cc4CN3)nc(N3CC4CCC3C4)n2)C1` (stereo partly drawn) [Compound 53, 6-[(1-acetylazetidin-3-yl)amino]-2-(3-azabicyclo[2.2.1]heptan-3-yl)-N-[(2R)-2-hydroxy-2-[(3S)-7-[(4-methyloxazol-5-yl)methoxy]-1,2,3,4-tetrahydroisoquinolin-3-yl]ethyl]pyrimidine-4-carboxamide], for which the IC50 in assay [1] was less than 1000 nM; in assay [2], 1000 to 10000 nM; against PRMT5 [3], less than 50 nM; on PRMT5 [4], 50 to 500 nM; on PRMT5 [5] it was 50 to 500 nM. Moreover, the “MTAP Intact/Deleted Ratio” value in assay [1] is “A* (an IC50 ratio greater than or equal to 10 fold between the IC50 in the HAP1 MTAP-intact cell line and the HAP1 MTAP-deleted cell line)”. Moreover, the “SAM/MTA Ratio” value at PRMT5 [3] was “A (a Ki ratio greater than or equal to 10 fold between the Ki in the presence of SAM and the Ki in the presence of MTA)”.

Turning to `CC(=O)N1CCC(Nc2cc(C(=O)NC[C@@H](O)[C@@H]3Cc4ccc(OCc5ocnc5C)cc4CN3)cc(N3CCN(C)CC3)n2)CC1` [Compound 54, 2-[(1-acetyl-4-piperidyl)amino]-N-[(2R)-2-hydroxy-2-[(3S)-7-[(4-methyloxazol-5-yl)methoxy]-1,2,3,4-tetrahydroisoquinolin-3-yl]ethyl]-6-(4-methylpiperazin-1-yl)pyridine-4-carboxamide], the IC50 in assay [1] is 1000 to 10000 nM; in assay [2], no less than 10000 nM; at PRMT5 [3], less than 50 nM; at PRMT5 [4], 50 to 500 nM; on PRMT5 [5], 50 to 500 nM. For the same molecule, in assay [1], the “MTAP Intact/Deleted Ratio” value was “C* (an IC50 ratio of less than 3 fold between the IC50 in the HAP1 MTAP-intact cell line and the HAP1 MTAP-deleted cell line)”. Also, the “SAM/MTA Ratio” value on PRMT5 [3] was “A (a Ki ratio greater than or equal to 10 fold between the Ki in the presence of SAM and the Ki in the presence of MTA)”.

`CCN1CCN(c2cc(C(=O)NC[C@@H](O)[C@@H]3Cc4ccc(OCc5ocnc5C)cc4CN3)cc(NC3CCC3)n2)CC1` [Compound 55, 2-(cyclobutylamino)-6-(4-ethylpiperazin-1-yl)-N-[(2R)-2-hydroxy-2-[(3S)-7-[(4-methyloxazol-5-yl)methoxy]-1,2,3,4-tetrahydroisoquinolin-3-yl]ethyl]pyridine-4-carboxamide]: the IC50 in assay [1] was less than 1000 nM; in assay [2] it was less than 1000 nM; against PRMT5 [3], less than 50 nM; on PRMT5 [4] it was 50 to 500 nM; on PRMT5 [5] it was 50 to 500 nM. Further, the “MTAP Intact/Deleted Ratio” value in assay [1] is “B* (an IC50 ratio greater than or equal to 3 fold but lower than 10 fold between the IC50 in the HAP1 MTAP-intact cell line and the HAP1 MTAP-deleted cell line)”. Also, at PRMT5 [3], the “SAM/MTA Ratio” value is “A (a Ki ratio greater than or equal to 10 fold between the Ki in the presence of SAM and the Ki in the presence of MTA)”.

Consider `CC(=O)N1CC(Nc2cc(C(=O)NC[C@@H](O)[C@@H]3Cc4ccc(OCc5ocnc5C)cc4CN3)nc(N3CC4CCC(C4)C3)n2)C1` [Compound 56, 6-[(1-acetylazetidin-3-yl)amino]-2-(3-azabicyclo[3.2.1]octan-3-yl)-N-[(2R)-2-hydroxy-2-[(3S)-7-[(4-methyloxazol-5-yl)methoxy]-1,2,3,4-tetrahydroisoquinolin-3-yl]ethyl]pyrimidine-4-carboxamide], for which the IC50 in assay [1] was less than 1000 nM; in assay [2], 1000 to 10000 nM; on PRMT5 [3], less than 50 nM; at PRMT5 [4] it was 50 to 500 nM; on PRMT5 [5], 50 to 500 nM. For the same molecule, in assay [1], the “MTAP Intact/Deleted Ratio” value is “A* (an IC50 ratio greater than or equal to 10 fold between the IC50 in the HAP1 MTAP-intact cell line and the HAP1 MTAP-deleted cell line)”. Moreover, the “SAM/MTA Ratio” value on PRMT5 [3] was “A (a Ki ratio greater than or equal to 10 fold between the Ki in the presence of SAM and the Ki in the presence of MTA)”.
